Measured values taken from PubChem BioAssay (NCI).
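GI50 = concentration required for 50% inhibition of growth. TGI: total growth inhibition.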

Assays:
Test in all cases: NCI tumour cell line growth inhibition, 384-well format
SR leukemia = system: SR leukemia
SK-MEL-5 melanoma = system: SK-MEL-5 melanoma
SK-OV-3 ovarian = system: SK-OV-3 ovarian
EKVX NSCLC = system: EKVX NSCLC
NCI-H522 lung = system: NCI-H522 lung
ACHN renal = system: ACHN renal
UACC-257 melanoma = system: UACC-257 melanoma
NCI/ADR-RES ovarian = system: NCI/ADR-RES ovarian
MOLT-4 leukemia = system: MOLT-4 leukemia
U251 glioblastoma = system: U251 glioblastoma
786-0 renal = system: 786-0 renal
SF-268 CNS = system: SF-268 CNS
MDA-MB-468 breast = system: MDA-MB-468 breast
SK-MEL-28 melanoma = system: SK-MEL-28 melanoma
HOP-62 NSCLC = system: HOP-62 NSCLC
NCI-H226 lung = system: NCI-H226 lung
SNB-19 CNS = system: SNB-19 CNS
LOX IMVI melanoma = system: LOX IMVI melanoma
SW-620 colon = system: SW-620 colon
KM12 colon = system: KM12 colon
A498 renal = system: A498 renal
CCRF-CEM leukemia = system: CCRF-CEM leukemia
COLO 205 colon = system: COLO 205 colon
HCC-2998 colon = system: HCC-2998 colon
UACC-62 melanoma = system: UACC-62 melanoma
RPMI-8226 leukemia = system: RPMI-8226 leukemia
SF-295 CNS = system: SF-295 CNS
K-562 leukemia = system: K-562 leukemia
HOP-92 NSCLC = system: HOP-92 NSCLC
OVCAR-4 ovarian = system: OVCAR-4 ovarian
DU-145 prostate = system: DU-145 prostate
HL-60(TB) leukemia = system: HL-60(TB) leukemia
M14 melanoma = system: M14 melanoma
OVCAR-5 ovarian = system: OVCAR-5 ovarian
TK-10 renal = system: TK-10 renal
HS 578T breast = system: HS 578T breast
IGROV1 ovarian = system: IGROV1 ovarian
T-47D breast = system: T-47D breast
A549 NSCLC = system: A549 NSCLC
MDA-MB-231 breast = system: MDA-MB-231 breast
PC-3 prostate = system: PC-3 prostate
NCI-H322M lung = system: NCI-H322M lung
RXF 393 renal = system: RXF 393 renal
UO-31 renal = system: UO-31 renal
HCT-15 colon = system: HCT-15 colon
NCI-H23 lung = system: NCI-H23 lung
SNB-75 CNS = system: SNB-75 CNS

`CC(C)(C)C[C@H]1N[C@@H](C(=O)NC2CCC(O)CC2)[C@H](c2cccc(Cl)c2F)[C@@]12C(=O)Nc1cc(Cl)ccc12` (some centres undefined) gave a GI50 (SR leukemia) of 0.0271 µM, a TGI (SR leukemia) of 0.0996 µM and a GI50 (SK-MEL-5 melanoma) of 2.57 µM. For the same compound, the TGI (SK-MEL-5 melanoma) was 13.1 µM, the GI50 (SK-OV-3 ovarian) was 14.6 µM and the TGI (SK-OV-3 ovarian) was 27.9 µM. For the same compound, the GI50 (EKVX NSCLC) was 8.97 µM, the TGI (EKVX NSCLC) was 21.5 µM and the GI50 (NCI-H522 lung) was 3.32 µM. For the same compound, the TGI (NCI-H522 lung) was 10.1 µM, the GI50 (ACHN renal) was 0.218 µM and the TGI (ACHN renal) was 2.53 µM. It also gave a GI50 (UACC-257 melanoma) of 0.556 µM, a TGI (UACC-257 melanoma) of 2.4 µM and a GI50 (NCI/ADR-RES ovarian) of 17.5 µM. It also gave a TGI (NCI/ADR-RES ovarian) of 31.4 µM, a GI50 (MOLT-4 leukemia) of 0.0487 µM and a TGI (MOLT-4 leukemia) of 0.152 µM. It also gave a GI50 (U251 glioblastoma) of 12.2 µM, a TGI (U251 glioblastoma) of 24.7 µM and a GI50 ([…]-0 renal) of 8.2 µM. It also gave a TGI (786-0 renal) of 21.1 µM, a GI50 (SF-268 CNS) of 13.6 µM and a TGI (SF-268 CNS) of 26.5 µM. For the same compound, the GI50 (MDA-MB-468 breast) was 2.27 µM, the TGI (MDA-MB-468 breast) was 9.06 µM and the GI50 (SK-MEL-28 melanoma) was 7.87 µM. It also gave a TGI (SK-MEL-28 melanoma) of 20.5 µM, a GI50 (HOP-62 NSCLC) of 14.7 µM and a TGI (HOP-62 NSCLC) of 28 µM. It also gave a GI50 (NCI-H226 lung) of 0.226 µM, a TGI (NCI-H226 lung) of 1.1 µM and a GI50 (SNB-19 CNS) of 14.1 µM. For the same compound, the TGI (SNB-19 CNS) was 27.2 µM, the GI50 (LOX IMVI melanoma) was 0.366 µM and the TGI (LOX IMVI melanoma) was 15.8 µM. The GI50 (SW-620 colon) was 14.7 µM, the TGI (SW-620 colon) was 28 µM and the GI50 (KM12 colon) was 2.15 µM. The TGI (KM12 colon) was 16.2 µM, the GI50 (A498 renal) was 0.211 µM and the TGI (A498 renal) was 3.41 µM. It also gave a GI50 (CCRF-CEM leukemia) of 3.25 µM, a TGI (CCRF-CEM leukemia) of 10.6 µM and a GI50 (COLO 205 colon) of 11.7 µM. The TGI (COLO 205 colon) was 24.1 µM, the GI50 (HCC-2998 colon) was 9.2 µM and the TGI (HCC-2998 colon) was 21.3 µM. For the same compound, the GI50 (UACC-62 melanoma) was 0.1 µM, the TGI (UACC-62 melanoma) was 1.86 µM and the GI50 (RPMI-8226 leukemia) was 2.35 µM. It also gave a TGI (RPMI-8226 leukemia) of 4.06 µM, a GI50 (SF-295 CNS) of 7.09 µM and a TGI (SF-295 CNS) of 19.8 µM. The GI50 (K-562 leukemia) was 4.1 µM, the TGI (K-562 leukemia) was 13.6 µM and the GI50 (HOP-92 NSCLC) was 8.42 µM. It also gave a TGI (HOP-92 NSCLC) of 21.4 µM, a GI50 (OVCAR-4 ovarian) of 7.25 µM and a TGI (OVCAR-4 ovarian) of 20.3 µM. For the same compound, the GI50 (DU-145 prostate) was 13 µM, the TGI (DU-145 prostate) was 25.8 µM and the GI50 (HL-60(TB) leukemia) was 2.21 µM. For the same compound, the TGI (HL-60(TB) leukemia) was 4.44 µM, the GI50 (M14 melanoma) was 5.59 µM and the TGI (M14 melanoma) was 20.3 µM. For the same compound, the GI50 (OVCAR-5 ovarian) was 13.6 µM, the TGI (OVCAR-5 ovarian) was 26.5 µM and the GI50 (TK-10 renal) was 8.04 µM. For the same compound, the TGI (TK-10 renal) was 20.8 µM, the GI50 (HS 578T breast) was 3.21 µM and the TGI (HS 578T breast) was 11.9 µM. It also gave a GI50 (IGROV1 ovarian) of 6.09 µM, a TGI (IGROV1 ovarian) of 20.4 µM and a GI50 (T-47D breast) of 8.29 µM. The TGI (T-47D breast) was 20.8 µM, the GI50 (A549 NSCLC) was 0.5 µM and the TGI (A549 NSCLC) was 11.9 µM. For the same compound, the GI50 (MDA-MB-231 breast) was 9.89 µM, the TGI (MDA-MB-231 breast) was 22.3 µM and the GI50 (PC-3 prostate) was 7.04 µM. For the same compound, the TGI (PC-3 prostate) was 18.7 µM, the GI50 (NCI-H322M lung) was 17.2 µM and the TGI (NCI-H322M lung) was 31.1 µM. For the same compound, the GI50 (RXF 393 renal) was 2.38 µM, the TGI (RXF 393 renal) was 8.18 µM and the GI50 (UO-31 renal) was 0.461 µM. The TGI (UO-31 renal) was 2.52 µM, the GI50 (HCT-15 colon) was 10.7 µM and the TGI (HCT-15 colon) was 22.9 µM. For the same compound, the GI50 (NCI-H23 lung) was 10 µM, the TGI (NCI-H23 lung) was 22.5 µM and the GI50 (SNB-75 CNS) was 6.62 µM. It also gave a TGI (SNB-75 CNS) of 19.2 µM.
